Data: EP0092060A1, “Pharmaceutical products in sustained-release form, and their preparation process” (LABORATORI PROPHIN Industria Chimica Farmaceutica S.p.A., priority 1982, dated 1983)

Legend:
[1] = Drug release (dissolution), USP XX paddle apparatus, distilled water at 37°C; format: physicochemical; settings: for time to total release: drug simply pasted/mixed into the polymer support matrix (uncoated nuclei); for release kinetics / release rate: nuclei covered with the diffusion regulating film; for release rate: during the release period; for % drug released: distilled water at 37°C, average of 6 determinations; for influence of the second film on the drug diffusion rate: nuclei with first and second films compared with first film only
Procedure: The Tiapride release was monitored for the uncoated nuclei, the nuclei with the first film applied, and the finished nuclei also comprising the second film.
A USP XX paddle apparatus was used, the dissolving medium being distilled water at 37°C.
The obtained results given hereinafter are the average of 6 determinations.
The Diltiazem release rate was measured on noncoated nuclei, nuclei coated with the first film and the finalized form with the second film coating.
A USP XX paddle apparatus was used and the dissolving medium was distilled water at 37°C.

[2] = Pharmacokinetic parameters obtained in man, used to calculate the optimum hourly dose; settings: human, in vivo, read-out: elimination constant (Kel) (converted)
[3] = cited from earlier work

## CCN(CC)CCNC(=O)c1cc(S(C)(=O)=O)ccc1OC.Cl [Tiapride, N-diethylaminoethyl-2-methoxy-5-methylsulphonyl-benzamide hydrochloride]
[1]
  time to total release: totally released within two hours
  release kinetics: zero order
  release rate: 10 to 15 mg/h
  influence of the second film on the drug diffusion rate: practically no influence
[1]; nuclei covered with the first and second films, 1 hour
  % drug released: 0%
[1]; nuclei covered with the first and second films, 2 hours
  % drug released: 1%
[1]; nuclei covered with the first and second films, 3 hours
  % drug released: 16%
[1]; nuclei covered with the first and second films, 4.5 hours
  % drug released: 34%
[1]; nuclei covered with the first and second films, 5.5 hours
  % drug released: 44%
[1]; nuclei covered with the first and second films, 6.5 hours
  % drug released: 57%
[1]; nuclei covered with the first and second films, 7.5 hours
  % drug released: 71%
[1]; nuclei covered with the first and second films, 8.5 hours
  % drug released: 83%
[1]; nuclei covered with the first film, 1 hour
  % drug released: 2%
[1]; nuclei covered with the first film, 2 hours
  % drug released: 4%
[1]; nuclei covered with the first film, 3 hours
  % drug released: 14%
[1]; nuclei covered with the first film, 3.5 hours
  % drug released: 19.3%
[1]; nuclei covered with the first film, 4.5 hours
  % drug released: 34%
[1]; nuclei covered with the first film, 5 hours
  % drug released: 47%
[1]; nuclei covered with the first film, 6 hours
  % drug released: 57%
[1]; nuclei covered with the first film, 7 hours
  % drug released: 69%
[1]; nuclei covered with the first film, 8 hours
  % drug released: 83%
[1]; uncoated nuclei, 15 min
  % drug released: 37.8%
[1]; uncoated nuclei, 30 min
  % drug released: 51.6%
[1]; uncoated nuclei, 60 min
  % drug released: 71.1%
[1]; uncoated nuclei, 90 min
  % drug released: 80.3%
[1]; uncoated nuclei, 120 min
  % drug released: 86.0%
[2]
  k el: 4.81e-05 s⁻¹
[3]; in man, 100 mg
  hematic peak after administering 100 mg (Cp): 800 ng/mL
[3]; in man
  half life: 4 h
  therapeutic range: 0.6 - 0.9 mg/l of plasma

## COc1ccc([C@@H]2Sc3ccccc3N(CCN(C)C)C(=O)[C@@H]2OC(C)=O)cc1 [Diltiazem]
[1]
  time to total release: totally released within two hours
  release kinetics: on the order of zero
  release rate: 10 to 15 mg/h
  influence of the second film on the drug diffusion rate: practically no effect
[2]
  k el: 3.42e-05 s⁻¹
[3]; humans, unit not given
  distribution volume (Vd): 1065
[3]; in man
  half life: 4 h
